Assay results: PubChem BioAssay AID248 (DTP/NCI, 2004)
Inconclusive results and toxic doses are left out. Cut-off read from the data, not from the text of the source: active = T/C of 150% or more; inactive = T/C below 125%. Square brackets hold non-standard residues; d marks the D form. Peptide text beside a SMILES is read from it. Ac5c = NC1(C(=O)O)CCCC1

System: L1210 leukemia ip in BDF1 mice, survival T/C
Assay: NCI In Vivo Anticancer Drug Screen. Data for tumor model L1210 Leukemia (intraperitoneal) in B6D2F1 (BDF1) mice
Details: endpoint: mean survival time, higher = longer survival
Summary of the method: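 Tumor was transplanted into mice, which were then dosed with test compound or vehicle alone. Survival was recorded for each group, and the treated figure was expressed relative to the control figure.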

[1] = dose: 100.0 mg/kg/injection, schedule: Q04DX002 (ip), vehicle: Klucel (hydroxypropylcellulose) (HPC)
[2] = dose: 200.0 mg/kg/injection, schedule: Q04DX002 (ip), vehicle: Klucel (hydroxypropylcellulose) (HPC)
[3] = dose: 400.0 mg/kg/injection, schedule: Q04DX002 (ip), vehicle: Klucel (hydroxypropylcellulose) (HPC)
[4] = dose: 100.0 mg/kg/injection, schedule: Q01DX009 (ip), vehicle: Klucel (hydroxypropylcellulose) (HPC)
[5] = dose: 100.0 mg/kg/injection, schedule: Q04DX003 (ip), vehicle: saline
[6] = dose: 200.0 mg/kg/injection, schedule: Q01DX009 (ip), vehicle: Klucel (hydroxypropylcellulose) (HPC)
[7] = dose: 200.0 mg/kg/injection, schedule: Q04DX003 (ip), vehicle: saline
[8] = dose: 400.0 mg/kg/injection, schedule: Q01DX009 (ip), vehicle: Klucel (hydroxypropylcellulose) (HPC)
[9] = dose: 400.0 mg/kg/injection, schedule: Q04DX003 (ip), vehicle: saline
[10] = dose: 100.0 mg/kg/injection, schedule: Q04DX003 (ip), vehicle: Klucel (hydroxypropylcellulose) (HPC)
[11] = dose: 200.0 mg/kg/injection, schedule: Q04DX003 (ip), vehicle: Klucel (hydroxypropylcellulose) (HPC)
[12] = dose: 400.0 mg/kg/injection, schedule: Q04DX003 (ip), vehicle: Klucel (hydroxypropylcellulose) (HPC)
[13] = dose: 50.0 mg/kg/injection, schedule: Q01DX009 (ip), vehicle: saline with Tween-80
[14] = dose: 75.0 mg/kg/injection, schedule: Q01DX009 (ip), vehicle: Klucel (hydroxypropylcellulose) (HPC)
[15] = dose: 150.0 mg/kg/injection, schedule: Q01DX009 (ip), vehicle: Klucel (hydroxypropylcellulose) (HPC)
[16] = dose: 300.0 mg/kg/injection, schedule: Q01DX009 (ip), vehicle: Klucel (hydroxypropylcellulose) (HPC)

Measured: T/C

N#CCCC(=O)c1cccnc1
inactive: dose: 100.0 mg/kg/injection, schedule: Q04DX002 (ip), vehicle: saline 108 % of control | dose: 200.0 mg/kg/injection, schedule: Q04DX002 (ip), vehicle: saline 90 % of control | dose: 400.0 mg/kg/injection, schedule: Q04DX002 (ip), vehicle: saline 93 % of control

O=C(O)C12CCC(CC1)C2
inactive: dose: 50.0 mg/kg/injection, schedule: Q01DX009 (ip), vehicle: saline 106 % of control | dose: 100.0 mg/kg/injection, schedule: Q01DX009 (ip), vehicle: saline 110 % of control | dose: 200.0 mg/kg/injection, schedule: Q01DX009 (ip), vehicle: saline 112 % of control | dose: 400.0 mg/kg/injection, schedule: Q01DX009 (ip), vehicle: saline 96 % of control

O=C(O)c1sccc1-c1cccc2ccccc12
inactive: dose: 50.0 mg/kg/injection, schedule: Q01DX001 (ip), vehicle: Klucel (hydroxypropylcellulose) (HPC) 94 % of control | dose: 100.0 mg/kg/injection, schedule: Q01DX001 (ip), vehicle: Klucel (hydroxypropylcellulose) (HPC) 96 % of control | dose: 200.0 mg/kg/injection, schedule: Q01DX001 (ip), vehicle: Klucel (hydroxypropylcellulose) (HPC) 94 % of control

O=C(Cc1ccccc1)O/C=C1/CCOC1=O
inactive: [1] 91 % of control | [2] 91 % of control | [3] 94 % of control

O=C(Nc1ccccc1)OCC(Cl)(Cl)Cl
inactive: dose: 100.0 mg/kg/injection, schedule: Q01DX001 (ip), vehicle: saline sonified 105 % of control | [4] 100 % of control | [5] 91 % of control | dose: 200.0 mg/kg/injection, schedule: Q01DX001 (ip), vehicle: saline sonified 108 % of control | [6] 107 % of control | [7] 100 % of control | dose: 400.0 mg/kg/injection, schedule: Q01DX001 (ip), vehicle: saline sonified 103 % of control | [8] 100 % of control | [9] 96 % of control

Cc1ccc2ccccc2c1CC(=O)O
inactive: [4] 101 % of control | [10] 112 % of control | [6] 95 % of control | [11] 96 % of control | [8] 117 % of control | [12] 96 % of control

Nc1nccc(Cl)n1
inactive: dose: 12.5 mg/kg/injection, schedule: Q01DX009 (ip), vehicle: saline with Tween-80 89 % of control | dose: 25.0 mg/kg/injection, schedule: Q01DX009 (ip), vehicle: saline with Tween-80 92 % of control | [13] 92 % of control

c1ccc2cc(Nc3ccc(Nc4ccc5ccccc5c4)cc3)ccc2c1
inactive: [14] 103 % of control | [5] 106 % of control | [15] 104 % of control | [7] 97 % of control | [16] 110 % of control | [9] 100 % of control

NC1(C(=O)NCC(=O)O)CCCC1 (H-[Ac5c]-Gly-OH)
inactive: [5] 104 % of control | [7] 100 % of control

O=C1c2ccccc2C(=O)N1CNc1ccccc1/C(=N/Nc1ccc([N+](=O)[O-])cc1[N+](=O)[O-])c1ccccc1
inactive: dose: 100.0 mg/kg/injection, schedule: Q04DX002 (ip), vehicle: saline with Tween-80 91 % of control | dose: 200.0 mg/kg/injection, schedule: Q04DX002 (ip), vehicle: saline with Tween-80 91 % of control | dose: 400.0 mg/kg/injection, schedule: Q04DX002 (ip), vehicle: saline with Tween-80 94 % of control

C[C@@H]1CCC[C@@H](NC(=O)N(CCCl)N=O)C1
inactive: dose: 6.7 mg/kg/injection, schedule: Q01DX001 (ip), vehicle: saline with Tween-80 108 % of control | dose: 10.0 mg/kg/injection, schedule: Q01DX001 (ip), vehicle: saline with Tween-80 113 % of control | dose: 15.0 mg/kg/injection, schedule: Q01DX001 (ip), vehicle: saline with Tween-80 124 % of control | [15] 106 % of control
active: dose: 18.7 mg/kg/injection, schedule: Q01DX009 (ip), vehicle: Klucel (hydroxypropylcellulose) (HPC) 188 % of control | dose: 34.0 mg/kg/injection, schedule: Q01DX001 (ip), vehicle: saline with Tween-80 166 % of control | dose: 37.5 mg/kg/injection, schedule: Q01DX009 (ip), vehicle: Klucel (hydroxypropylcellulose) (HPC) 328 % of control | dose: 50.0 mg/kg/injection, schedule: Q01DX001 (ip), vehicle: saline with Tween-80 293 % of control | dose: 75.0 mg/kg/injection, schedule: Q01DX001 (ip), vehicle: saline with Tween-80 484 % of control | [14] 198 % of control | dose: 112.0 mg/kg/injection, schedule: Q01DX001 (ip), vehicle: saline with Tween-80 444 % of control | dose: 168.0 mg/kg/injection, schedule: Q01DX001 (ip), vehicle: saline with Tween-80 434 % of control

O=C1C=C2C=CCCC2CC1 (stereo not drawn)
inactive: dose: 75.0 mg/kg/injection, schedule: Q01DX001 (ip), vehicle: other 104 % of control | dose: 150.0 mg/kg/injection, schedule: Q01DX001 (ip), vehicle: other 98 % of control | dose: 300.0 mg/kg/injection, schedule: Q01DX001 (ip), vehicle: other 114 % of control

O=C(O)C(O)C(O)C(O)C(O)C(O)CO.[Cu+2] (stereo not drawn)
inactive: dose: 30.0 mg/kg/injection, schedule: Q01DX001 (ip), vehicle: saline 91 % of control

COc1ccc(/C=C2\N=C(c3cccc([N+](=O)[O-])c3)OC2=O)cc1OC
inactive: [1] 89 % of control | [2] 110 % of control | [3] 100 % of control

Oc1ccc2nocc2c1N=Nc1ccccc1
inactive: [13] 98 % of control | dose: 100.0 mg/kg/injection, schedule: Q01DX009 (ip), vehicle: saline with Tween-80 98 % of control | dose: 200.0 mg/kg/injection, schedule: Q01DX009 (ip), vehicle: saline with Tween-80 95 % of control

CCCCCCC(=O)/C=C/C=C/c1ccccc1
inactive: [4] 97 % of control | [10] 98 % of control | [6] 91 % of control | [11] 98 % of control | [8] 100 % of control | [12] 94 % of control

CCOC(=O)CC(N)CC(=O)OCC
inactive: dose: 100.0 mg/kg/injection, schedule: Q01DX001 (ip), vehicle: saline 104 % of control | dose: 200.0 mg/kg/injection, schedule: Q01DX001 (ip), vehicle: saline 104 % of control | dose: 400.0 mg/kg/injection, schedule: Q01DX001 (ip), vehicle: saline 106 % of control

O=C(Cl)/C=C/c1c(Cl)cccc1Cl
inactive: [14] 102 % of control | [10] 103 % of control | [15] 100 % of control | [11] 92 % of control | [16] 93 % of control

ClCCN(CCCl)c1ccc(C=Nc2cc(Cl)ccc2-n2ccnc2)c(Cl)c1
inactive: [1] 98 % of control | [2] 95 % of control | [3] 98 % of control

O=c1cnc2ccc3ccccc3c2[nH]1
inactive: dose: 25.0 mg/kg/injection, schedule: Q04DX002 (ip), vehicle: Klucel (hydroxypropylcellulose) (HPC) 97 % of control | dose: 50.0 mg/kg/injection, schedule: Q04DX002 (ip), vehicle: Klucel (hydroxypropylcellulose) (HPC) 93 % of control | [1] 90 % of control

O=C(O)CSC(SCC(=O)O)(c1ccccc1)c1ccccc1
inactive: [1] 88 % of control | [2] 104 % of control | [3] 102 % of control

CCC(C)C1NC(=O)C(NC(=O)c2c3nc4c(C(=O)NC5C(=O)NC(C(C)CC)C(=O)N6CCCC6C(=O)N(C)CC(=O)N(C)C(C(C)C)C(=O)OC5C)cc([N+](=O)[O-])c(C)c4oc-3c(C)c(=O)c2N)C(C)OC(=O)C(C(C)C)N(C)C(=O)CN(C)C(=O)C2CCCN2C1=O (stereo not drawn)
inactive: dose: 75.0 micrograms/kg/injection, schedule: Q01DX009 (ip), vehicle: saline + alcohol 111 % of control | dose: 100.0 micrograms/kg/injection, schedule: Q01DX009 (ip), vehicle: saline + alcohol 112 % of control | dose: 200.0 micrograms/kg/injection, schedule: Q01DX009 (ip), vehicle: saline + alcohol 122 % of control | dose: 300.0 micrograms/kg/injection, schedule: Q04DX003 (ip), vehicle: saline + alcohol 107 % of control | dose: 400.0 micrograms/kg/injection, schedule: Q04DX003 (ip), vehicle: saline + alcohol 108 % of control | dose: 600.0 micrograms/kg/injection, schedule: Q04DX003 (ip), vehicle: saline + alcohol 119 % of control
